| SMILES | melting point [°C] |
| --- | --- |
| O=C(Nc1ccc(C(CC2CCCC2)C(=O)Nc2nccs2)cc1)c1ccccc1 (stereo not drawn) [Example 1] | 285 to 290 |
| O=C(Cc1cccs1)Nc1ccc(C(CC2CCCC2)C(=O)Nc2nccs2)cc1 (stereo not drawn) [Example 2, 3-Cyclopentyl-N-thiazol-2-yl-2-[4-(2-thiophen-2-yl-acetylamino)-phenyl]-propionamide] | 220 to 221 |
| O=C(Nc1nccs1)C(CC1CCCC1)c1ccc(NS(=O)(=O)c2ccc([N+](=O)[O-])cc2)cc1 (stereo not drawn) [Example 3, 3-Cyclopentyl-2-[4-(4-nitro-benzenesulfonylamino)-phenyl]-N-thiazol-2-yl-propionamide] | 120 to 125 |
| O=C(Nc1ccc(C(CC2CCCC2)C(=O)Nc2nccs2)cc1)c1ccncc1 (stereo not drawn) [Example 4, N-{4-[2-Cyclopentyl-1-(thiazol-2-ylcarbamoyl)-ethyl]-phenyl}-isonicotinamide] | 225 to 230 |
| O=C(Nc1ccc(C(CC2CCCC2)C(=O)Nc2nccs2)cc1)c1ccc([N+](=O)[O-])cc1 (stereo not drawn) [Example 5, N-{4-[2-Cyclopentyl-1-(thiazol-2-ylcarbamoyl)-ethyl]-phenyl}-4-nitro-benzamide] | 236 to 238 |
| COC(=O)C(=O)Nc1ccc(C(CC2CCCC2)C(=O)Nc2nccs2)cc1 (stereo not drawn) [Example 6, N-{4-[2-Cyclopentyl-1-(thiazol-2-ylcarbamoyl)-ethyl]-phenyl}-oxalamic acid methyl ester] | 95 to 98 |
| CC(=O)OCC(=O)Nc1ccc(C(CC2CCCC2)C(=O)Nc2nccs2)cc1 (stereo not drawn) [Example 7, Acetic acid {4-[2-cyclopentyl-1-(thiazol-2-ylcarbamoyl)-ethyl]-phenylcarbamoyl}-methyl ester] | 90 to 95 |
| CN(C)S(=O)(=O)Nc1ccc(C(CC2CCCC2)C(=O)Nc2nccs2)cc1 (stereo not drawn) [Example 8, N-{4-[2-Cyclopentyl-1-(thiazol-2-ylcarbamoyl)-ethyl]-phenyl}-dimethylsulfamide] | 110 to 112 |
| O=C(Nc1ccc(C(CC2CCCC2)C(=O)Nc2nccs2)cc1)c1cccnc1 (stereo not drawn) [Example 9, N-{4-[2-Cyclopentyl-1-(thiazol-2-ylcarbamoyl)-ethyl]-phenyl}-nicotinamide] | 240 to 242 |
| CCOC(=O)c1csc(NC(=O)C(CC2CCCC2)c2ccc(NC(=O)c3cccnc3)cc2)n1 (stereo not drawn) [Example 10, 2-(3-Cyclopentyl-2-{4-[(pyridine-3-carbonyl)-amino]-phenyl}propionylamino)-thiazole-4-carboxylic acid ethyl ester] | 222 to 223 |
| CCOC(=O)Cc1csc(NC(=O)C(CC2CCCC2)c2ccc(NC(=O)c3cccnc3)cc2)n1 (stereo not drawn) [Example 11, [2-(3-Cyclopentyl-2-{4-[(pyridine-3-carbonyl)-amino]-phenyl}-propionylamino)-thiazol-4-yl]-acetic acid ethyl ester] | 195 to 200 |
| CS(=O)(=O)Nc1ccc(C(CC2CCCC2)C(=O)Nc2nccs2)cc1 (stereo not drawn) [Example 12, 3-Cyclopentyl-2-(4-methanesulfonylamino-phenyl)-N-thiazol-2-yl-propionamide] | 85 to 90 |
| O=C(Nc1nccs1)C(CC1CCCC1)c1ccc(NS(=O)(=O)C(F)(F)F)cc1 (stereo not drawn) [Example 13, 3-Cyclopentyl-N-thiazol-2-yl-2-(4-trifluoromethanesulfonylamino-phenyl)-propionamide] | 70 to 74 |
| O=C(Nc1ccc(C(CC2CCCC2)C(=O)Nc2ccccn2)cc1)c1cccnc1 (stereo not drawn) [Example 15, N-{4-[2-Cyclopentyl-1-(pyridin-2-ylcarbamoyl)-ethyl]-phenyl}-nicotinamide] | 160 to 163 |
| COC(=O)c1ccc(NC(=O)C(CC2CCCC2)c2ccc(NC(=O)c3cccnc3)cc2)nc1 (stereo not drawn) [Example 16, 6-(3-Cyclopentyl-2-{4-[(pyridine-3-carbonyl)-amino]-phenyl}-propionylamino)-nicotinic acid methyl ester] | 110 to 111 |

From patent US6489485B2, “Para-amine substituted phenylamide glucokinase activators” (Hoffmann-La Roche Inc., priority 2000, dated 2002)
